Patent publication US10330673B2, “Fluorescent chemical sensor for biological amines” (The Curators of the University of Missouri, priority 2013, dated 2019)

What was measured:
[1] = Fluorescence titration of sensor with epinephrine; format: binding
Protocol: (§1) Fluorescence spectra were recorded on a Shimadzu RF-5301 PC spectrofluorometer at 37° C. A 1 mg/mL stock solution of I-2 in DMSO was prepared. A stock solution of I-2 in buffer (1×10^−5 M, 25 mM HEPES, 50 mM Na2S2O3, pH=5.0) was prepared. Norepinephrine, dopamine, epinephrine, and glutamate stock solutions were prepared by separately dissolving the analytes at the concentration to be used in the titration with the buffered stock solution of I-2 (thus avoiding dilution of I-2 during the experiment). I-2 was titrated with aliquots of analyte solution. The sensor was excited at 488 nm with slit widths of 5 nm.
(§2) Fluorescence spectra were recorded on a Shimadzu RF-5301 PC spectrofluorometer at 37° C. A separate 1 mg/mL stock solution of each coumarin-3-aldehyde derivative in DMSO was prepared. An aqueous stock solution of each derivative (10 μM) in buffer (25 mM HEPES, 50 mM Na2S2O3, pH=5.0) was prepared. Norepinephrine, dopamine, glutamate, and epinephrine stock solutions were prepared by separately dissolving the solid analytes at the concentration to be used in the titration with the buffered stock solutions described above and thus, avoiding dilution of the sensor during the experiment. The benzene-based NS521 derivatives were excited at 488 nm. The thiophene-based derivatives were excited at 515 nm.

[2] = Fluorescence titration of sensor with dopamine; format: binding; conditions: for Ka: pH 5.0, 37° C.
Protocol: as §1, §2

[3] = Fluorescence titration of sensor with lysine; format: binding; conditions: amine guest lysine
[4] = Fluorescence quantum yield of sensor bound to norepinephrine; format: physicochemical
[5] = Fluorescence quantum yield of sensor bound to glutamate; format: physicochemical
Protocol: Steady-state fluorescence spectroscopic studies were performed using a Horiba Scientific Fluorolog-3 Model FL3C-111 spectrofluorometer and data was collected and analyzed using HJY FluorEssence™ 3.5.1.20 software package. UV-visible spectra were obtained on a Varian Cary 1E UV-visible spectrophotometer. A stock solution of each benzene- or thiophene-based coumarin-3-aldehyde derivative (1 μM) in buffer (25 mM HEPES, 50 mM Na2S2O3, pH=5.0) was prepared. Each solution contained 1% (v/v) DMSO as a cosolvent except as noted. The slit width was 2 nm for both excitation and emission. The bound benzene- and thiophene-coumarin-3-aldehyde derivatives contained 500 mM glutamate (pH=5.0).
To determine the relative quantum yield of fluorescence (Φfl) for the benzene-based derivatives, a 1.0 μM solution of fluorescein (absolute Φfl=0.85) in 0.1 N NaOH (pH 13) was used as a fluorescence standard. The unbound derivatives were excited at 473 nm and the bound derivatives were excited at 488 nm. To determine the relative quantum yield of fluorescence (Φfl) for the thiophene-based derivatives, a 1.0 μM solution of rhodamine B (absolute Φfl=0.31) in water (pH 7) was used as a fluorescence standard. The unbound derivatives were excited at 473 nm and the bound derivatives were excited at 515 nm. Quantum yields were obtained in triplicate and calculated as per the following equation: […]

[6] = system: norepinephrine-enriched chromaffin cells; assay: Live-cell confocal imaging with Compound I-2, norepinephrine-enriched cells; format: cell-based, bovine; conditions: 0.1 μM
Protocol: Chromaffin cells were separated into norepinephrine-enriched and epinephrine-enriched fractions by centrifugation on a Percoll gradient. Both populations were independently incubated with a 0.1 μM solution of Compound I-2 at 37° C. for 30 minutes and then washed to remove excess sensor and plated.
Chromaffin cells were isolated from bovine adrenal glands as previously described. Following centrifugation at 18° C. at 13,000 rpm for 45 minutes in the Percoll gradient, chromaffin cells separate into fractions enriched with either epinephrine-enriched cells (denser band) and norepinephrine-enriched cells (lighter band). Moro, M. A.; Lépez, M. G.; Gandía, L.; Michelena, P.; Garcia, G. Separation and culture of living adrenaline- and noradrenaline-containing cells from bovine adrenal medullae. Anal. Biochem. 1990, 185, 243-248. Over 90% of the catecholamine content found in the cells in the denser fraction are epinephrine, whereas approximately 67% of the catecholamine content in the lighter fraction are norepinephrine. Liu, X.; Barizuddin, S.; Shin, W.; Mathai, C. J.; Gangopadhyay, S.; Gillis, K. D. Microwell device for targeting single cells to electrochemical microelectrodes for high-throughput amperometric detection of quantal exocytosis. Anal. Chem. 2011, 83, 2445-2451. The two cell fractions were collected from the Percoll gradient with careful pipetting and separately cultured. […]

[7] = Fluorescence response mode toward catecholamines; format: binding; conditions: catecholamines norepinephrine and dopamine
[8] = Table 2, analyte dopamine, benzene-based compounds I, excited at 488 nm

CCN(CC)c1ccc2c(-c3ccc(OC)cc3)c(C=O)c(=O)oc2c1 [Compound I-2, 7-diethylamino-3-formyl-4-(4′-methoxyphenyl)coumarin]
Ka ([1]; amine guest epinephrine, fluorescence spectroscopy, λex = 488 nm, λem = 521 nm, pH 5.0, 37° C.): 0 M⁻¹ | interaction with secondary amines such as epinephrine ([1]; in words): does not interact | F.E. [2, 8]: 2.98 | Ka [2, 8]: 112.10 M⁻¹ | Ka ([2]; amine guest dopamine, fluorescence spectroscopy, λex = 488 nm, λem = 521 nm): 112 M⁻¹ | Isat/Io (λex = 488 nm) ([2]; amine guest dopamine, intensity at saturation from fit to binding isotherm): 3.0 | Ka ([3]; fluorescence spectroscopy, λex = 488 nm, λem = 521 nm): 11 M⁻¹ | Isat/Io (λex = 488 nm) ([3]; intensity at saturation from fit to binding isotherm): 15.1 | Quantum Yield (Φ) [4]: 0.0033 | Quantum Yield (Φ) ([5]; bound to glutamate): 0.0095 | difference in quantum yields, bound to glutamate vs bound to norepinephrine ([5]; in words): three-fold | cell fluorescence, confocal microscopy ([6]; 37° C., 30 minutes, 488 nm excitation (bound sensor)): strong, punctate fluorescence | cell fluorescence, confocal microscopy ([6]; excited at 440 nm (unbound sensor)): No significant fluorescence | mode of fluorescence response [7]: turn-on fluorescent sensor
